Test results published in patent publication US20200016159A1, “N3-CYCLICALLY SUBSTITUTED THIENOURACILS AND USE THEREOF” (Bayer Aktiengesellschaft, priority 2016, published 2020).

Biological target: T1, human adenosine A2b receptor (Homo sapiens, UniProt P29275)
T1 sequence (P29275 1-332): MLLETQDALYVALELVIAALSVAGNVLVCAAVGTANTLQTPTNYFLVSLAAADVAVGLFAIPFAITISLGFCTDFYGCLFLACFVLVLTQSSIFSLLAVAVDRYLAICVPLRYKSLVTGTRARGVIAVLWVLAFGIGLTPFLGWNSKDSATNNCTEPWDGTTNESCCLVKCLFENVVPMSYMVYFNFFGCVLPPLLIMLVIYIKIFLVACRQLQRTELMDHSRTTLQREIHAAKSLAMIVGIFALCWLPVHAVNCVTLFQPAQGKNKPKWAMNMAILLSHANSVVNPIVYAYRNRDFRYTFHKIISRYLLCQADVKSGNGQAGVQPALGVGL
Assay: Cellular in vitro reporter gene test for A2b receptor activity (antagonism of NECA)
Assay type: cell-based
Design: expressed in transfected cells; host or cells: CHO-K1 (Chinese hamster ovary) with CRE-luciferase reporter
Settings: recombinant CHO-K1 cells, CRE-luciferase reporter, co-incubation with EC50 concentration of NECA, 3 hours
Procedure, shortened: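 CHO-K1 cells expressing recombinant human A2b receptor plus a CRE-driven firefly luciferase reporter. Compounds co-incubated with NECA at its same-day EC50 concentration; luminescence read 3 hours after NECA addition. IC50 values, sometimes means of several determinations rounded to two significant figures.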

IC50 [nM] | SMILES
67 | CCOCCn1c(=O)n(C2CC2)c(=O)c2c(C)c(CN3CCNC3=O)sc21 [Example 31, 3-Cyclopropyl-1-(2-ethoxyethyl)-5-methyl-6-[(2-oxoimidazolidin-1-yl)methyl]thieno[2,3-d]pyrimidine-2,4(1H,3H)-dione]
430 | CCOCCn1c(=O)n(C2CC2)c(=O)c2c(C)c(Cn3nc[nH]c3=O)sc21 [Example 32, 3-Cyclopropyl-1-(2-ethoxyethyl)-5-methyl-6-[(5-oxo-4,5-dihydro-1H-1,2,4-triazol-1-yl)methyl]thieno[2,3-d]pyrimidine-2,4(1H,3H)-dione]
100 | Cc1c(CN2CCNC2=O)sc2c1c(=O)n(C1CC1)c(=O)n2CCOC(C)C [Example 33, 3-Cyclopropyl-1-(2-isopropoxyethyl)-5-methyl-6-[(2-oxoimidazolidin-1-yl)methyl]thieno[2,3-d]pyrimidine-2,4(1H,3H)-dione]
1.8 | Cc1c(CN2CCNC2=O)sc2c1c(=O)n(C1CC1)c(=O)n2CCOC(F)(F)F [Example 35, 3-Cyclopropyl-5-methyl-6-[(2-oxoimidazolidin-1-yl)methyl]-1-[2-(trifluoromethoxy)ethyl]thieno[2,3-d]pyrimidine-2,4(1H,3H)-dione]
33 | Cc1c(CN2CCNC2=O)sc2c1c(=O)n(C1CC1)c(=O)n2C[C@H]1CCCO1 [Example 38, 3-Cyclopropyl-5-methyl-6-[(2-oxoimidazolidin-1-yl)methyl]-1-[(2R)-tetrahydrofuran-2-ylmethyl]thieno[2,3-d]pyrimidine-2,4(1H,3H)-dione]
240 | Cc1c(CN2CCNC2=O)sc2c1c(=O)n(C1CC1)c(=O)n2C[C@@H]1CCCO1 [Example 39, 3-Cyclopropyl-5-methyl-6-[(2-oxoimidazolidin-1-yl)methyl]-1-[(2S)-tetrahydrofuran-2-ylmethyl]thieno[2,3-d]pyrimidine-2,4(1H,3H)-dione]

Second part, the molecule before the results:

SMILES | IC50 [nM]
Cc1c(Cn2nc[nH]c2=O)sc2c1c(=O)n(C1CC1)c(=O)n2CCOC(C)C [Example 34, 3-Cyclopropyl-1-(2-isopropoxyethyl)-5-methyl-6-[(5-oxo-4,5-dihydro-H-1,2,4-triazol-1-yl)methyl]thieno[2,3-d]pyrimidine-2,4(1H,3H)-dione] | 500
Cc1c(Cn2nc[nH]c2=O)sc2c1c(=O)n(C1CC1)c(=O)n2C[C@H]1CCCO1 [Example 50, 3-Cyclopropyl-5-methyl-6-[(5-oxo-4,5-dihydro-1H-1,2,4-triazol-1-yl)methyl]-1-[(2R)-tetrahydrofuran-2-ylmethyl]thieno[2,3-d]pyrimidine-2,4(1H,3H)-dione] | 140
Cc1c(Cn2nc[nH]c2=O)sc2c1c(=O)n(C1CC1)c(=O)n2C[C@@H]1CCCO1 [Example 51, 3-Cyclopropyl-5-methyl-6-[(5-oxo-4,5-dihydro-1H-1,2,4-triazol-1-yl)methyl]-1-[(2S)-tetrahydrofuran-2-ylmethyl]thieno[2,3-d]pyrimidine-2,4(1H, 3H)-dione] | 320
Cc1c(CN2CCNC2=O)sc2c1c(=O)n(C1(C)CC1)c(=O)n2C [Example 52, 1,5-Dimethyl-3-(1-methylcyclopropyl)-6-[(2-oxoimidazolidin-1-yl)methyl]thieno[2,3-d]pyrimidine-2,4(1H,3H)-dione] | 19
Cc1c(Cn2nc[nH]c2=O)sc2c1c(=O)n(C1(C)CC1)c(=O)n2C [Example 53, 1,5-Dimethyl-3-(1-methylcyclopropyl)-6-[(5-oxo-4,5-dihydro-1H-1,2,4-triazol-1-yl)methyl]thieno[2,3-d]pyrimidine-2,4(1H,3H)-dione] | 120
CCCCn1c(=O)n(C2(C)CC2)c(=O)c2c(C)c(CN3CCNC3=O)sc21 [Example 54, 1-Butyl-5-methyl-3-(1-methylcyclopropyl)-6-[(2-oxoimidazolidin-1-yl)methyl]thieno[2,3-d]pyrimidine-2,4(1H,3H)-dione] | 7.5
